Results as given in ChEMBL document CHEMBL1151126, “Studies on inhibitors of skin tumor promotion, III. Inhibitory effects of isoflavonoids from Wisteria brachybotrys on Epstein-Barr virus activation” (J Nat Prod, 1988).
Active and inactive are the calls of the source. No cut-off for these calls is given here.

What was measured:
Raji [1] = assay: Inhibition of EBV-early antigen activation in human Raji cells assessed as early antigen activation at 320 nM; assay type: cell-based; design: scale not given: the % may be the effect or the level left; conditions: human gammaherpesvirus 4
Raji [2] = assay: Inhibition of 12-O-tetradecanoylphorbol-13-acetate-induced EBV-early antigen activation in human Raji cells assessed as early antigen induction at 100 molar ratio after 48 hrs by indirect immunofluorescence technique relative to TPA; assay type: cell-based; design: scale not given: the % may be the effect or the level left; conditions: human gammaherpesvirus 4
[3] = Cytotoxicity against human Raji cells assessed as cell viability at 100 molar ratio; assay type: cell-based; conditions: read-out: Activity
HeLa [4] = assay: Cytotoxicity in human HeLa cells assessed as decrease in cell number at 50 uM after 1 hr; assay type: cell-based
Mus musculus = species: Mus musculus; assay: Displacement of [3H]TPA from TPA receptor in ICR mouse epidermal particulate fraction by Me2CO filter method
Raji [5] = assay: Inhibition of 12-O-tetradecanoylphorbol-13-acetate-induced EBV-early antigen activation in human Raji cells assessed as early antigen induction at 10000 molar ratio after 48 hrs by indirect immunofluorescence technique relative to TPA; assay type: cell-based; design: scale not given: the % may be the effect or the level left; conditions: human gammaherpesvirus 4
HeLa [6] = assay: Cytotoxicity in human HeLa cells assessed as effect on cell viability at 50 uM after 1 hr; assay type: cell-based
[7] = Cytotoxicity against human Raji cells assessed as cell viability at 10000 molar ratio; assay type: cell-based; conditions: read-out: Activity
[8] = Cytotoxicity against human Raji cells assessed as cell viability at 1000 molar ratio; assay type: cell-based; conditions: read-out: Activity
HeLa [9] = assay: Inhibition of TPA-stimulated [32P] incorporation into phospholipids in human HeLa cells at 50 uM after 1 hr; assay type: functional
[10] = Cytotoxicity against human Raji cells assessed as cell viability at 10 molar ratio; assay type: cell-based; conditions: read-out: Activity
Raji [11] = assay: Inhibition of 12-O-tetradecanoylphorbol-13-acetate-induced EBV-early antigen activation in human Raji cells assessed as early antigen induction at 10 molar ratio after 48 hrs by indirect immunofluorescence technique relative to TPA; assay type: cell-based; design: scale not given: the % may be the effect or the level left; conditions: human gammaherpesvirus 4
Raji [12] = assay: Inhibition of 12-O-tetradecanoylphorbol-13-acetate-induced EBV-early antigen activation in human Raji cells assessed as early antigen induction at 1000 molar ratio after 48 hrs by indirect immunofluorescence technique relative to TPA; assay type: cell-based; design: scale not given: the % may be the effect or the level left; conditions: human gammaherpesvirus 4

SMILES | Activity (Raji [1]) [%] | Activity (Raji [2]) [%] | viability at 100 molar ratio [3] [%] | Activity (HeLa [4]) | Activity (Mus musculus) | Activity (Raji [5]) [%] | Activity (HeLa [6]) | viability at 10000 molar ratio [7] [%] | viability at 1000 molar ratio [8] [%] | inhibition at 50 µM (HeLa [9]) [%] | viability at 10 molar ratio [10] [%] | Activity (Raji [11]) [%] | Activity (Raji [12]) [%]
COc1ccc(-c2coc3cc(OC(C)=O)c(OC)cc3c2=O)cc1 | 2.1 | 42.3 | > 80 | Non-toxic | inactive | 0 | Non-toxic | 80 | > 80 | 33.9 | 100 | 72.7 | 6
COc1ccc(-c2coc3cc(OC(C)=O)ccc3c2=O)cc1 | 0 | 95.2 | 100 | Non-toxic | – | 0 | Non-toxic | 80 | > 80 | 40.2 | 100 | 100 | 15.2
C=C[C@]1(C)CC[C@@](C)(C(C)C)c2cc3c4c(c[nH]c4c21)C[C@@H](CO)NC(=O)[C@H](C(C)C)N3C | – | – | – | – | Active | – | – | – | – | – | – | – | –
CCCCCCCCCCCCCC(=O)O[C@@H]1[C@@H](C)[C@@]2(O)[C@@H](C=C(CO)C[C@]3(O)C(=O)C(C)=C[C@@H]23)[C@@H]2C(C)(C)[C@]12OC(C)=O | – | – | – | – | Active | – | – | – | – | – | – | – | –
COc1ccc(-c2coc3cc(O)c(OC)cc3c2=O)cc1 [CASTANIN] | 34 | 75.8 | > 80 | Non-toxic | inactive | 0 | Non-toxic | 80 | > 80 | 16.4 | 100 | 100 | 36.4
COc1ccc(-c2coc3cc(O)ccc3c2=O)cc1 [FORMONONETIN] | 0 | 92.6 | > 80 | Non-toxic | inactive | 0 | Non-toxic | 20 | > 80 | 34.5 | 100 | 100 | 63.6
COc1ccc(-c2coc3cc(O[C@@H]4O[C@H](CO)[C@@H](O)[C@H](O)[C@H]4O)ccc3c2=O)cc1 [ONONIN] | 2 | 100 | 100 | Non-toxic | – | 39.3 | Non-toxic | 80 | > 80 | 12.3 | 100 | 100 | 76
COc1ccc(-c2coc3cc(O[C@@H]4O[C@H](CO)[C@@H](O)[C@H](O)[C@H]4O)c(OC)cc3c2=O)cc1 [WISTIN] | 0 | 86.6 | > 80 | Non-toxic | – | 15.2 | Non-toxic | 50 | > 80 | 0 | 100 | 100 | 78.5
